The results in this text go back to patent publication US20060100264A1, “3,3'-Diindolylmethane immune activating compositions” (priority 2004, published 2006).

Structures are written as SMILES.

Common to all, as to assay type: cell-based, human
One assay deals with STAT1. As to the kind of experiment: STAT1 phosphorylation (Tyr-701) by Western blot. As to conditions: DIM 6 or 24 h, with or without 15 min IFNγ exposure. An excerpt:
To acsertain the role of GAS element activation in transcriptional activation by DIM, we examined the effect of this indole on downstream events in the GAS signaling pathway. For this purpose, the effects of DIM on phosphorylation of the signal transduction and activator of transcription factor 1 (STAT1), and the binding of the activated STAT1 dimer to the cognate GAS responsive element were examined. Phosphorylation of STAT1 by Janus-activated kinase (JAK) is the first step in IFNγ signaling following binding to IFNGR1. For these studies, cells were pretreated with DIM for 6 or 24 h followed by a 15 min. exposure to IFNγ. STAT1 phosphorylation levels in cell lysates of DIM-treated cells were compared to controls that received IFNγ but had not been treated with DIM. Phosphorylation was measured by Western blot analysis using an antibody specific to STAT1 phosphorylated on Tyr-701 residue.
Background: A western blot detects proteins with antibodies after separation by electrophoresis.

The next assay deals with GAS element. Briefly: Electrophoretic gel mobility shift assay, STAT1 binding to GAS element. Particulars: DIM pretreatment for various times, IFNγ 30 min. As to the method: An electrophoretic gel mobility shift assay was used to verify that the phosphorylated STAT1 was effectively activated to a dimer that could bind to the GAS element. The ^32P-labeled DNA probe containing a GAS sequence was incubated with nuclear extracts from cells pretreated with DIM for various times as indicated, and with IFNγ for 30 min. […] When samples were incubated with an antibody specific to STAT1, the band was super-shifted, confirming the identity of the protein binding to the labeled GAS probe.

Another assay relates to MCF-7 cells. Briefly: Cell proliferation over a 4-day treatment period. As to conditions: 4-day treatment, heat-treated serum. As to the method:
Functional consequences of the synergistic effects of DIM and IFNγ on gene expression were examined at the level of proliferation rates. Cell proliferation was measured over a 4-day treatment period with treatments with DIM, IFNγ, or both substances, and compared to a DMSO control. With heat-treated serum, IFNγ alone reduced cell proliferation by as much as 70% compared to controls. DIM treatments reduced proliferation by as much as 60%. […] These effects were accompanied by morphological changes characteristic of apoptosis.

On to `c1ccc2c(Cc3c[nH]c4ccccc34)c[nH]c2c1` [DIM, 3,3′-Diindolylmethane], for which, in the assay on STAT1, the “STAT1 phosphorylation (Tyr-701)” value is “did not induce STAT1 phosphorylation”. The “Band-shift of 32P-labeled GAS probe with nuclear extracts” value with GAS element was “did not produce a shifted band”. Further, the “Reduction of cell proliferation compared to controls” value in the assay with MCF-7 cells was ≤ 60%.
